Source: ChEMBL document CHEMBL1201862, “PubChem BioAssay data set” (2004)
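Dose response: 5 concentrations. Exposure: 48 h. Format: 96-well plates. Endpoint: linear interpolation; highest concentration if not reached. GI50 is the concentration that inhibits growth by half.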 Active and inactive are the calls of the source. Rule as the data show it: active = GI50 up to about 1.1 µM and inactive = higher.

Assays:
Assay in all cases: growth of human tumour cells (NCI), 48 h
[1] = tested on: HOP-62
[2] = tested on: MDA-MB-231
[3] = tested on: SK-MEL-28
[4] = tested on: SF-539
[5] = tested on: 786-0
[6] = tested on: Malme-3M
[7] = tested on: OVCAR-3
[8] = tested on: PC-3
[9] = tested on: COLO 205
[10] = tested on: SNB-75
[11] = tested on: M14
[12] = tested on: KM12
[13] = tested on: ACHN
[14] = tested on: NCI/ADR-RES
[15] = tested on: NCI-H23
[16] = tested on: UO-31
[17] = tested on: OVCAR-8
[18] = tested on: DU-145
[19] = tested on: HT-29
[20] = tested on: SK-OV-3

Measured: GI50

Nc1nc(Cl)cc(NCC2(CO)CCC(Cc3ccccc3)C2)n1 (stereo not given)
inactive: [1] 32.7 µM | [2] 33 µM | [3] 37.5 µM | [4] 29 µM | [5] 27.7 µM | [6] 10.2 µM | [7] 43.1 µM | [8] 26.7 µM | [9] 12.8 µM | [10] 33.6 µM | [11] 18.7 µM | [12] 20.2 µM | [13] 20 µM | [14] 20.3 µM | [15] 2.87 µM | [16] 38.3 µM | [17] 15.6 µM | [18] 27.8 µM | [19] 19.1 µM | [20] 36 µM
